Assay results: article PMC4834639, “Steroid binding to Autotaxin links bile salts and lysophosphatidic acid signalling” (Nature Communications, 2016)
Entries after “also recorded” stand apart in the source; their conditions may differ. Like-named read-outs stand apart in the source and are kept apart here.

What was measured:
hATX [1] = molecular target: T1, hATX (Homo sapiens, UniProt Q13822)
Method: (§1) All biochemical studies were performed with hATX. ATX lysoPLD activity was measured by choline release from LPC[47]. […] The relative amount of released choline was measured by HVA fluorescence in a 96-well plate (Corning). Fluorescent intensity was determined at λex/λem=320/450 nm every 30 s for 90 min with a Fluorostar plate reader (BMG Labtech). Data analysis was performed using GraphPad Prism.
(§2) The experiments for determining IC50 for different bile salt inhibitors were performed by adding the named bile salt and performing serial threefold dilutions; for each bile salt concentration, the velocity of the reaction was monitored as a function of time in the lysoPLD assay as described above.
(§3) For initial comparison between competitive, uncompetitive and non-competitive inhibition by TUDCA, using the LPC and the FS3 assays, we measured the relative velocity for increasing LPC or FS3 substrate concentrations, for no-inhibitor and for three different inhibitor concentrations. The relative velocity for each data point was measured by linear regression as described above, and a Michaelis–Menten curve was created for each inhibitor concentration. We then used the following equations to describe each mode of inhibition:
(§4) where in addition to previous definitions that can be derived from equations (4–6), we define Part as the partiality of the inhibition and α as an estimated constant that determines mechanism: if α=1, the formula becomes identical to equation (4) and the inhibition mode is noncompetitive; if a is very large, then the model approaches a competitive model equation (3); if a is very small but greater than zero, the model approaches an uncompetitive model.
(§5) This procedure allowed a more robust fit to determine all parameters from all available experiments.
(§6) All modelling was performed using the regression analysis tools within the Graphpad/Prism software. The values of all derived parameters indicate mean values as obtained by nonlinear regression analysis using the formulas listed above; triplicate data were used as separate observations during the fit; ±values indicate the standard error of the mean.

hATX [2] = molecular target: T1, hATX; assay: biochemical
Method: as §1, §2, §3, §4, §5, §6

hATX [3] = molecular target: T1, hATX; assay: Mass spectrometry analysis of sterols associated with recombinant ATX preparation; set-up: made in house; host or cells: HEK 293 Flp-In cells; conditions: for amount found in ATX preparation: representative ATX preparation containing 2.4 pmol ATX; for Ratio to ATX: representative ATX preparation, ATX = 1.0
Method: Recombinant hATX preparations or buffer controls were extracted using acidified organic solvents as reported previously for lipid extractions from cells and tissues[45] with inclusion of deuterium-labelled cholesterol of oxysterol internal standards as detailed below. Samples were evaporated to dryness and reconstituted in methanol for mass spectrometry analysis.
Cholesterol and hydroxysterols were analysed using an AB Sciex 4000-Qtrap hybrid linear ion trap triple quadrupole mass spectrometer in multiple reaction monitoring mode connected to a Shimadzu HPLC. Cholesterol was analysed in positive multiple reaction monitoring mode using a Machery Nagel Nucleodur C8 gravity column, 5 μm, 125 × 2 mm^2 with a flow rate of 0.5 ml min^−1. Solvent A consists of 75/25 of methanol/water with 0.5% formic acid and 0.1% 5 mM ammonium formate and solvent B consists of 99/1 of methanol/water with 0.5% formic acid and 0.1% 5 mM ammonium formate. The cholesterol measurements were conducted exactly as reported previously with quantification accomplished by reference to a deuterated internal standard. Oxysterols were measured after dimethylglycine (DMG) derivatization using an Agilent Zorbax Eclipse XDB-C18 column, 5 μm, 4.6 × 150 mm^2 with a flow rate of 0.5 ml min^−1. Solvent A was 85% methanol with 5 mM ammonium acetate and solvent B consisted of 80:20:2 of chloroform/water/50 mM ammonium acetate. In brief, we obtained authentic standards for 25-, 24-, 27, 7-α and 4-β OH cholesterol and deuterated 25-OH cholesterol and prepared DMG derivatives exactly as previously described. We obtained product ion spectra from the doubly and singly charged DMG derivatives of these compounds that were essentially identical to those reported previously with some differences in product ion abundances that are likely attributable to differences between our mass spectrometer system and that used by Jiang et al.[46]. […] Quantification of oxysterols was accomplished by reference to the deuterated 25-OH cholesterol internal standard as explained below.
Cholesterol was detected in all ATX preparations analysed.
As reported by Jiang et al.[46], bis-DMG derivatives of hydroxylated cholesterol generate doubly charged molecular ions (m/z=287.3), which fragment to produce protonated DMG (m/z=104.1) and production of singly charged mono-DMG derivative ions (m/z=367.2). […] Accordingly, we established a selected ion-monitoring mode HPLC LC MS/MS assay that monitored these ion pairs. […] Quantification was accomplished by comparing the integrated peak area for the […]/104.1 ion pair to that of the corresponding ion pair from the deuterated 25-OH cholesterol internal standard. That ATX preparation analysed contained 1.48 pmol of 7-OH cholesterol.

[4] = system: ATX-mediated LPAR1 endocytosis in HeLa cells; assay: LPA1 receptor internalization assay in GFP-LPA1-transfected HeLa cells; conditions: 0.1 μM LPC, 5 nM ATX, 500 μM TUDCA, 15 min, P<0.001
Method: HeLa cells (obtained from American Type Culture Collection) were grown in DMEM supplemented with 10% fetal bovine serum at 37 °C under 5% CO2. For LPA1 internalization studies, HeLa cells were transient transfected with GFP-LPA1 plasmid using X-tremeGene 9 (Roche) reagent according to the manufacturer's instructions. At 10 h after transfection, the cells were rinsed with SF-DMEM and incubated in the same medium for 16–24 h before further treatments. […] Slides were examined on a Leica TCS-SP5 confocal microscope (× 62 objective) and analysed using ImageJ software.

[5] = LPC(18:1) substrate, result in words

SMILES	effect on ATX-mediated LPC hydrolysis (hATX [1]; [5])	IC50 (hATX [2])	also measured
C[C@H](CCC(=O)NCCS(=O)(=O)O)[C@H]1CC[C@H]2[C@@H]3CC[C@@H]4C[C@H](O)CC[C@]4(C)[C@H]3C[C@H](O)[C@]12C [TDCA, Taurodeoxycholic acid]	abrogate the inhibitory activity	> 1000 µM	
C[C@H](CCC(=O)O)[C@H]1CC[C@H]2[C@@H]3[C@@H](O)C[C@@H]4C[C@H](O)CC[C@]4(C)[C@H]3CC[C@]12C [UDCA, Ursodeoxycholic acid]		8.8 ± 0.5 µM	
CC(C)CCC[C@@H](C)[C@H]1CC[C@H]2[C@@H]3[C@H](O)C=C4C[C@@H](O)CC[C@]4(C)[C@H]3CC[C@]12C [7HCS, 7α-hydroxycholesterol]	no effect		amount found in ATX preparation (hATX [3]): 1.48 pmol; Ratio to ATX (hATX [3]): 0.62
CC(C)CCC[C@@H](C)[C@H]1CC[C@H]2[C@@H]3CC=C4C[C@@H](O)CC[C@]4(C)[C@H]3CC[C@]12C [Cholesterol]			amount found in ATX preparation (hATX [3]): 0.35 pmol; Ratio to ATX (hATX [3]): 0.15
C[C@H](CCC(=O)NCCS(=O)(=O)O)[C@H]1CC[C@H]2[C@@H]3[C@H](O)C[C@@H]4C[C@H](O)CC[C@]4(C)[C@H]3C[C@H](O)[C@]12C [TCA, Taurocholic acid]		> 1000 µM	effect on ATX-mediated LPC hydrolysis (hATX [1]): abrogate the inhibitory activity
C[C@@H]1C[C@H]2[C@@H]3CCC4=CC(=O)C=C[C@]4(C)[C@@]3(F)[C@@H](O)C[C@]2(C)[C@@]1(O)C(=O)CO [dexamethasone]	no effect		
C[C@H](CCCC(C)(C)O)[C@H]1CC[C@H]2[C@@H]3[C@H](O)C=C4C[C@@H](O)CC[C@]4(C)[C@H]3CC[C@]12C [DHCS, 7α,25-Dihydroxycholesterol]	no effect	> 1000 µM	
C[C@]12C=CC(=O)C=C1CC[C@@H]1[C@@H]2[C@@H](O)C[C@@]2(C)[C@H]1CC[C@]2(O)C(=O)CO [prednisolone]	no effect		
C[C@H](CCC(=O)NCC(=O)O)[C@H]1CC[C@H]2[C@@H]3[C@H](O)C[C@@H]4C[C@H](O)CC[C@]4(C)[C@H]3CC[C@]12C [GCDCA, Glycochenodeoxycholic acid]	did not significantly change potency	8.1 ± 0.7 µM	
C[C@]12CC[C@H]3[C@@H](CCC4=CC(=O)CC[C@@]43C)[C@@H]1CC[C@@H]2O [testosterone]	no effect		
C[C@H](CCC(=O)NCCS(=O)(=O)O)[C@H]1CC[C@H]2[C@@H]3[C@@H](O)C[C@@H]4C[C@H](O)CC[C@]4(C)[C@H]3CC[C@]12C [TUDCA, Tauroursodeoxycholic acid]			ATX-mediated LPAR1 endocytosis (number of GFP-LPA1 endosomes) [4]: reduces ATX-mediated LPAR1 endocytosis; also recorded: reduces the number of endosomes
